One data set deals with trypsin. Briefly: Stability against cleavage by trypsin after 24 hrs by enzymatic digestion assay. Type of data set: ADME. As to conditions: human, read-out: Activity.
The target of data set [1] is Sodium-dependent noradrenaline transporter (Homo sapiens, UniProt P23975). Put plainly: Displacement of [3H]nisoxetine from human NET in COS7 cells. Format: cell-based, COS-7. On the technique in general: Displacement assays read how much labelled ligand stays bound in the presence of the test substance.

Some results are limits rather than exact numbers.

Sodium-dependent noradrenaline transporter, sequence (P23975 whole entry): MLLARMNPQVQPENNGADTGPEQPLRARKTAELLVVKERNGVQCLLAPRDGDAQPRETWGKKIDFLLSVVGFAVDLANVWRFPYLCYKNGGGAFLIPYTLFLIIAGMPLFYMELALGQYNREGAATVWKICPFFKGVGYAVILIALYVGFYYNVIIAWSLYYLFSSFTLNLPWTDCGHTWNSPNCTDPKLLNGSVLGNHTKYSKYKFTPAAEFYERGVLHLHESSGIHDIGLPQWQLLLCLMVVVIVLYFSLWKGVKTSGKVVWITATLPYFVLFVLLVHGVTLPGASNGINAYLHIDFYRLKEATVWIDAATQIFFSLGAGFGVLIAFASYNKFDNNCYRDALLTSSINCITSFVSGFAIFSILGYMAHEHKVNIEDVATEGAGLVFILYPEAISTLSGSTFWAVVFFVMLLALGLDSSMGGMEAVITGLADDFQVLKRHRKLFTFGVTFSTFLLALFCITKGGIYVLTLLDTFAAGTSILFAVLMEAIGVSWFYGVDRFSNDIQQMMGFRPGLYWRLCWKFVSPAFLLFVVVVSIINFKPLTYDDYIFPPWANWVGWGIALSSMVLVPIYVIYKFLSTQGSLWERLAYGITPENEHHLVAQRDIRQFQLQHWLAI

As a reminder, the EC50 is the concentration giving half of the maximal effect. In the case of `CC(C)C[C@@H]1NC(=O)[C@H](CCCCN)NC(=O)[C@H](Cc2ccc(O)cc2)NC(=O)CNC(=O)C2CSSCC(NC1=O)C(=O)N[C@@H](Cc1c[nH]cn1)C(=O)N1C[C@H](O)C[C@H]1C(=O)N[C@H](C(=O)O)CSSC[C@H](NC(=O)[C@@H](NC(=O)CNC(=O)[C@@H](N)CC(N)=O)C(C)C)C(=O)N2` (some centres not stated), the remaining at 24 h in the data set on trypsin was < 55%. Also, a half-maximal effect in data set [1] (EC50) was put at 1820 nM.

The record behind these values is ChEMBL document CHEMBL1137326, “Cyclic MrIA: a stable and potent cyclic conotoxin with a novel topological fold that targets the norepinephrine transporter” (J Med Chem, 2006).
